# Several values for one entry are separate records, joined by “and”; a condition that tells them apart may be missing. Identical values can stand only once. ± gives the expanded uncertainty stated by the source.
# Details: Liquid
Compound,vapor or sublimation pressure (308.15 K) [kPa],vapor or sublimation pressure (313.15 K)
CCOCCO [2-ethoxyethan-1-ol],1.303 ± 0.16,1.864 ± 0.16 kPa and 1.803 ± 0.16 kPa and 1.829 ± 0.16 kPa
CCOC(C)=O [ethyl acetate],,25.08 ± 0.2 kPa
CCOC(=O)CC [ethyl propanoate],,10.6 ± 0.17 kPa
COC(C)=O [methyl ethanoate],,53.81 ± 0.24 kPa
COC=O [methyl methanoate],114.88 ± 0.35,
CCCOC(C)=O [propyl ethanoate],,9.586 ± 0.17 kPa
